Activity data for 17 molecules are collected here from ChEMBL document CHEMBL3045804, “Synthesis and Herbicidal Activity of 2-Benzylamino-4-methyl-6-trifluoromethyl-1, 3, 5-triazune Derivatives” (J Pestic Sci, 1998).

Assay type in all cases: functional
Assay [1] concerns Pontederia vaginalis. In words: Herbicidal activity against Monochoria vaginalis assessed as killing at 800 g/10 acre measured after 3 weeks by pre-emergence/paddy application test.
For assay [2], the system named is Chenopodium album. In words: Herbicidal activity against Chenopodium album assessed as killing at 400 g/10 acre measured after 3 weeks by post-emergence/foliar application test.
The subject of assay [3] is Echinochloa crus-galli. In words: Herbicidal activity against Echinochloa crus-galli (barnyard grass) assessed as killing at 400 g/10 acre measured after 3 weeks by post-emergence/foliar application test.
For assay [4], the system named is Rotala indica. In words: Herbicidal activity against Rotala indica assessed as killing at 800 g/10 acre measured after 3 weeks by pre-emergence/paddy application test.
Assay [5] deals with Echinochloa crus-galli. In words: Herbicidal activity against Echinochloa crus-galli (barnyard grass) assessed as killing at 800 g/10 acre measured after 3 weeks by pre-emergence/field application test.
In assay [6] the test system is Digitaria ciliaris. In words: Herbicidal activity against Digitaria ciliaris assessed as killing at 400 g/10 acre measured after 3 weeks by post-emergence/foliar application test.
Assay [7] deals with Chenopodium album. In words: Herbicidal activity against Chenopodium album assessed as killing at 800 g/10 acre measured after 3 weeks by pre-emergence/field application test.
The test system of assay [8] is Digitaria ciliaris. In words: Herbicidal activity against Digitaria ciliaris assessed as killing at 800 g/10 acre measured after 3 weeks by pre-emergence/field application test.
In assay [9] the test system is Echinochloa oryzicola. In words: Herbicidal activity against Echinochloa oryzicola assessed as killing at 800 g/10 acre measured after 3 weeks by pre-emergence/paddy application test.
Assay [10] concerns Stellaria media. In words: Herbicidal activity against Stellaria media assessed as killing at 800 g/10 acre measured after 3 weeks by pre-emergence/field application test.
In assay [11] the test system is Schoenoplectiella juncoides. In words: Herbicidal activity against Schoenoplectiella juncoides assessed as killing at 800 g/10 acre measured after 3 weeks by pre-emergence/paddy application test.
For assay [12], the system named is Echinochloa crus-galli. In words: Herbicidal activity against Echinochloa crus-galli (barnyard grass) assessed as killing at 100 g/10 acre measured after 3 weeks by post-emergence/foliar application test.
Assay [13] concerns Schoenoplectiella juncoides. In words: Herbicidal activity against Schoenoplectiella juncoides assessed as killing at 100 g/10 acre measured after 3 weeks by pre-emergence/paddy application test.
Assay [14] has as its system Digitaria ciliaris. In words: Herbicidal activity against Digitaria ciliaris assessed as killing at 100 g/10 acre measured after 3 weeks by post-emergence/foliar application test.
For assay [15], the system named is Pontederia vaginalis. In words: Herbicidal activity against Monochoria vaginalis assessed as killing at 100 g/10 acre measured after 3 weeks by pre-emergence/paddy application test.
In assay [16] the test system is Echinochloa oryzicola. In words: Herbicidal activity against Echinochloa oryzicola assessed as killing at 100 g/10 acre measured after 3 weeks by pre-emergence/paddy application test.
For assay [17], the system named is Stellaria media. In words: Herbicidal activity against Stellaria media assessed as killing at 100 g/10 acre measured after 3 weeks by post-emergence/foliar application test.
The subject of assay [18] is Stellaria media. In words: Herbicidal activity against Stellaria media assessed as killing at 100 g/10 acre measured after 3 weeks by pre-emergence/field application test.
Assay [19] has as its system Echinochloa crus-galli. In words: Herbicidal activity against Echinochloa crus-galli (barnyard grass) assessed as killing at 100 g/10 acre measured after 3 weeks by pre-emergence/field application test.
The test system of assay [20] is Chenopodium album. In words: Herbicidal activity against Chenopodium album assessed as killing at 100 g/10 acre measured after 3 weeks by post-emergence/foliar application test.
For assay [21], the system named is Chenopodium album. In words: Herbicidal activity against Chenopodium album assessed as killing at 100 g/10 acre measured after 3 weeks by pre-emergence/field application test.
Assay [22] deals with Rotala indica. In words: Herbicidal activity against Rotala indica assessed as killing at 100 g/10 acre measured after 3 weeks by pre-emergence/paddy application test.
Assay [23] relates to Digitaria ciliaris. In words: Herbicidal activity against Digitaria ciliaris assessed as killing at 100 g/10 acre measured after 3 weeks by pre-emergence/field application test.

With `Cc1nc(NCCCc2ccccc2)nc(C(F)(F)F)n1`, the Activity is given as 51% in assay [1]; 100% in assay [2]; 91% in assay [3]; 51% in assay [4]; 76% in [5]; 76% in [6]. For the same molecule, the Activity in assay [7] is on record as 76%; in assay [8] it was 100%; in assay [9] it was 1%; in [10] it was 100%; in assay [11], 1%.

With `Cc1nc(NCCc2ccccc2)nc(C(F)(F)F)n1`, the Activity in assay [1] is reported as 76%; in [2], 91%; in assay [3], 0%; in assay [4] it was 91%; in assay [5], 51%; in assay [6], 0%. In addition, the Activity in [7] came to 91%; in assay [8] it was 76%; in assay [9], 26%; in assay [11], 26%.

As for `Cc1nc(NCc2ccc(Br)cc2)nc(C(F)(F)F)n1`, the Activity is 26% in assay [12]; 76% in assay [13]; 100% in assay [14]; 91% in [15]; 51% in assay [16]; 100% in assay [17]. Also, the Activity in assay [18] was 91%; in assay [19], 76%; in assay [20], 100%; in assay [21] it was 100%; in assay [22], 100%; in [23], 91%.

As for `Cc1nc(NCc2ccc(C(C)(C)C)cc2)nc(C(F)(F)F)n1`, the Activity in assay [12] came out at 26%; in assay [13], 1%; in [14], 0%; in assay [15] it was 26%; in [16], 26%; in [17] it was 100%. For the same molecule, the Activity turned out to be 91% in assay [18]; 26% in assay [19]; 76% in assay [20]; 91% in [21]; 91% in assay [22]; 76% in assay [23].

`Cc1nc(NCc2ccccc2Cl)nc(C(F)(F)F)n1`: the Activity in [12] was found to be 0%; in assay [13], 1%; in assay [14] it was 0%; in [15], 26%; in assay [16] it was 0%; in assay [17], 76%. Moreover, the Activity in [18] worked out at 76%; in assay [19], 1%; in assay [20], 26%; in assay [21], 26%; in assay [22], 76%; in assay [23], 1%.

As for `Cc1nc(NCc2cccc(Cl)c2)nc(C(F)(F)F)n1`, the Activity in assay [12] stood at 51%; in [13], 51%; in assay [14] it was 91%; in assay [15], 51%; in assay [16], 51%; in [17], 100%. Moreover, the Activity in assay [19] is 1%; in assay [20], 100%; in assay [21], 76%; in assay [22], 100%; in assay [23], 51%.

With `Cc1nc(NCc2ccc(Cl)cc2)nc(C(F)(F)F)n1`, the Activity in assay [12] is 26%; in [13] it was 76%; in [14] it was 76%; in assay [15], 100%; in assay [16], 76%; in [17], 100%. The Activity was found to be 91% in [18]; 51% in [19]; 100% in [20]; 100% in assay [21]; 91% in [22]; 91% in [23].

In the case of `Cc1nc(NCc2ccc(F)cc2)nc(C(F)(F)F)n1`, the Activity in assay [12] worked out at 51%; in [13], 51%; in assay [14], 91%; in assay [15] it was 91%; in assay [16], 76%; in [17], 100%. Moreover, the Activity is on record as 100% in assay [18]; 76% in assay [19]; 91% in assay [21]; 100% in [22]; 76% in assay [23].

As for `COc1ccc(CNc2nc(C)nc(C(F)(F)F)n2)cc1`, the Activity came out at 26% in assay [12]; 1% in [13]; 26% in [14]; 51% in assay [15]; 26% in [16]; 100% in [17]. Moreover, the Activity in [18] turned out to be 91%; in assay [19] it was 76%; in assay [20] it was 100%; in assay [21] it was 76%; in assay [22] it was 76%; in assay [23], 0%.

Take `Cc1nc(NCc2ccc(C(F)(F)F)cc2)nc(C(F)(F)F)n1`: the Activity came out at 1% in assay [12]; 51% in assay [13]; 100% in [14]; 76% in assay [15]; 51% in [16]; 100% in assay [17]. Besides, the Activity was 100% in assay [18]; 76% in assay [19]; 100% in [20]; 91% in [21]; 91% in [22]; 100% in assay [23].

Regarding `Cc1nc(C)nc(NCc2ccccc2)n1`, the Activity in [1] stood at 100%; in [2], 51%; in assay [3], 1%; in assay [4], 1%; in [5], 0%; in [6], 1%. For the same molecule, the Activity is 0% in assay [7]; 0% in [8]; 51% in [9]; 0% in [10]; 0% in assay [11].

As for `CCc1nc(C)nc(NCc2ccccc2)n1`, the Activity is reported as 51% in assay [1]; 51% in [4]; 0% in assay [5]; 51% in assay [7]; 0% in [8]; 76% in [9]. The Activity in assay [11] is recorded as 1%.

On to `CCCc1nc(C)nc(NCc2ccccc2)n1`, for which the Activity in assay [1] came out at 26%; in [2], 91%; in [3], 1%; in [4], 26%; in assay [5] it was 0%; in assay [6] it was 1%. For the same molecule, the Activity amounted to 0% in assay [7]; 0% in assay [8]; 26% in [9]; 0% in assay [10]; 1% in [11].

Regarding `Cc1nc(NCc2ccccc2)nc(C(F)(F)F)n1`, the Activity in assay [1] turned out to be 100%; in assay [2], 100%; in assay [3], 51%; in assay [4], 91%; in assay [5] it was 100%; in assay [6], 76%. Moreover, the Activity came out at 100% in assay [8], 76% in assay [9], 100% in assay [10] and 76% in [11].

Regarding `CCc1nc(NCc2ccccc2)nc(C(F)(F)F)n1`, the Activity in assay [1] was found to be 100%; in [2], 51%; in assay [3], 1%; in assay [4], 91%; in assay [5], 51%; in assay [6] it was 1%. The Activity in [8] is reported as 100%; in assay [9], 91%; in assay [10] it was 100%; in [11], 100%.

For the molecule `CCNc1nc(Cl)nc(NC(C)C)n1` [ATRAZINE], the Activity worked out at 26% in assay [12], 0% in [14], 100% in [17] and 100% in assay [20].

As for `CCNc1nc(Cl)nc(NCC)n1` [SIMAZINE], the Activity in [18] stood at 91%; in assay [19], 26%; in assay [21] it was 91%; in [23], 51%.
